Columns and labels:
mice = assay: OVA specific serum IgE after immunization; conditions: i.m. day 0 and day 10, serum day 17
[1] = tested on: IRF3/7, STING, MyD88, IL-12, and type I IFN signaling
Experimental: The vertical axis of the left panel indicates the concentration of IFNγ (ng/ml), and the vertical axis of the right panel indicates the concentration of IL-13 (ng/ml). […] The splenocytes were stimulated for 48 hours with OVA.
On day 17, OVA specific sera IgG2c and IgG1 were measured by ELISA.
The vertical axis of the left panel indicates the concentration of IFNγ (ng/ml), and the vertical axis of the right panel indicates the concentration of IL-13 (ng/ml). […] (D) The splenocytes were stimulated for 48 hours with OVA proteins.
On day 17, OVA specific serum IgG2c and IgG1 were measured by ELISA. Further, splenocytes were stimulated for 48 hours with OVA to measure IFNγ production by ELISA.
On day 17, OVA specific sera IgG2c and IgG1 were measured by ELISA. Further, splenocytes were stimulated for 48 hours with an OVA protein to measure IFNγ production by ELISA.

C57BL/6J mice = assay: Intramuscular OVA immunization of mice: serum antibodies and splenocyte cytokines; type: in vivo, mouse; conditions: for serum anti-OVA IgG1 titer / OVA-specific IL-13 production by splenocytes: i.m. day 0 and day 10 with OVA; for serum anti-OVA IgG1 titer: serum day 17; for OVA-specific IL-13 production by splenocytes: splenocytes day 17, OVA 48 hours
Experimental: Mice were immunized intramuscularly on day 0 and day 10 with K3 CpG (10 μg), 3′3′/2′3′-cGAMP (1 μg), c-di-GMP (1 μg), DMXAA (50 μg), or OVA (10 μg) comprising or not comprising K3+3′3′/2′3′-cGAMP/c-di-GMP/DMXAA. On day 17, OVA specific sera IgG1 and IgG2c were measured by ELISA.
(B—C) mice were immunized intramuscularly on day 0 and day 10 with K3 CpG (10 μg), 3′3′/2′3′-cGAMP (1 μg), c-di-GMP (1 μg), DMXAA (50 μg), or OVA (10 μg) comprising or not comprising K3+3′3′/2′3′-cGAMP/c-di-GMP/DMXAA. Splenocytes were stimulated for 48 hours with OVA (10 μg/ml) protein. Production of IFNγ and IL-13 was measured by ELISA.
On day 17, the splenocytes were isolated and stimulated for 48 hours with a MHC class I (OVA257) or a MHC class II (OVA323) specific OVA or an OVA peptide.
On day 17, OVA specific sera IgG1 and IgG2c were measured by ELISA as previously described [Kuroda et al., Immunity. (2011) 34; 514-526]. The secondary antibodies used in ELISA of IgG2c and IgG1 were horseradish peroxidase conjugate goat anti-mouse IgG2c and IgG1 (Bethyl Laboratories, Montgomery, Tex.). On day 17, splenocytes were collected to prepare a single cell suspension using gentle MACS dissociator (miltenyi Biotech, Gladbach, Germany). […] IFNγ and IL-13 production was measured by ELISA.

SMILES | IgE of the serum in mice immunized with OVA (mice) | dependency of Th2 responses on type I IFN signaling ([1]; IFNAR KO mice) | dependency of induced antibody responses on type I IFN signaling ([1]; IFNAR KO mice) | dependency of induced T cell responses on IRF3/7 and MyD88 ([1]; IRF3/7 DKO and MyD88 KO mice) | dependency of induced antibody and T cell responses on STING ([1]; Tmem173gt mice) | adjuvant type (C57BL/6J mice; OVA immunization, antibody and T cell responses) | serum anti-OVA IgG1 titer (C57BL/6J mice) | OVA-specific IL-13 production by splenocytes (C57BL/6J mice)
Nc1nc2c(ncn2[C@@H]2O[C@@H]3COP(=O)(O)O[C@H]4[C@@H](O)[C@H](n5cnc6c(N)ncnc65)O[C@@H]4COP(=O)(O)O[C@H]3[C@H]2O)c(=O)[nH]1 [cGAMP, 3′3′-cGAMP] | induce IgE | not dependent thereon | dependent on type I IFN signaling | partially dependent on IRF3/7 and surprisingly dependent on MyD88 | completely dependent on STING | type 2 adjuvant | high | production of OVA-specific IL-13
Nc1nc2c(ncn2[C@@H]2O[C@@H]3COP(=O)(O)O[C@H]4[C@@H](O)[C@H](n5cnc6c(=O)[nH]c(N)nc65)O[C@@H]4COP(=O)(O)O[C@H]3[C@H]2O)c(=O)[nH]1 [c-di-GMP] |  |  |  |  |  |  | high | production of OVA-specific IL-13
Cc1ccc2c(=O)c3cccc(CC(=O)O)c3oc2c1C [DMXAA] |  |  |  |  |  |  | high | production of OVA-specific IL-13
